# Measurements: patent publication US8889705B2, “Noscapine analogs and their use in treating cancers” (Emory University, priority 2007, dated 2014)
# What was measured:
# tubulin = system: T1, tubulin; experiment: Tubulin polymerization assay (light scattering at 550 nm); type: biochemical, mammalian; details: 25 μM or 100 μM
# T1 construct: other: 2 μM tubulin, 45 min at 37° C., double reciprocal plot; rate and extent of tubulin polymerization; other: 25 μM or 100 μM
# Method: Mammalian brain tubulin (1.0 mg/ml) was mixed with different concentrations of 9-nitro-nos (25 or 100 μM) at 0° C. in an assembly buffer (100 mM PIPES at pH 6.8, 3 mM MgSO4, 1 mM EGTA, 1 mM GTP, and 1M sodium glutamate). Polymerization was initiated by raising the temperature to 37° C. in a water bath. The rate and extent of the polymerization reaction were monitored by light scattering at 550 nm, using a 0.3-cm path length cuvette in a JASCO FP-6500 spectrofluorometer (JASCO, Tokyo, Japan) for 30 minutes.
# 1A9 cells = experiment: Cell cycle analysis (propidium iodide, flow cytometry); type: cell-based, human; details: 1A9, 50 μM
# Method: (§1) The flow cytometric evaluation of the cell cycle status was performed as described previously (Zhou et al., 2003). Briefly, 2×10^6 cells were centrifuged, washed twice with ice-cold PBS, and fixed in 70% ethanol. Tubes containing the cell pellets were stored at 4° C. for at least 24 hours. Cells were then centrifuged at 1000×g for 10 min and the supernatant was discarded. The pellets were washed twice with 5 ml of PBS and then stained with 0.5 ml of propidium iodide (0.1% in 0.6% Triton-X in PBS) and 0.5 ml of RNase A (2 mg/ml) for 45 minutes in dark. Samples were then analyzed on a FACSCalibur flow cytometer (Beckman Coulter Inc., Fullerton, Calif.).
# 1A9/PTX22 cells = experiment: as above; type: cell-based, human; details: 1A9/PTX22, 50 μM
# Method: as §1
smiles,measurement,setting,value
"COc1ccc2c(c1OC)C(=O)O[C@@H]2[C@H]1c2c(c([N+](=O)[O-])c3c(c2OC)OCO3)CCN1C [9-nitro-nos, (S)-6,7-dimethoxy-3-((R)-4-methoxy-6-methyl-9-nitro-5,6,7,8-tetrahydro-[1,3]dioxolo[4,5-g]isoquinolin-5-yl)isobenzofuran-1(3H)-one]",rate and extent of tubulin polymerization,tubulin,did not inhibit the rate or extent of tubulin polymerization
same,G0/G1,1A9 cells; 0 h,50.0%
same,G2/M,1A9 cells; 0 h,21.2%
same,S,1A9 cells; 0 h,21.8%
same,Sub-G1,1A9 cells; 0 h,0.7%
same,G0/G1,1A9 cells; 24 h,30.6%
same,G2/M,1A9 cells; 24 h,34.2%
same,S,1A9 cells; 24 h,14.3%
same,Sub-G1,1A9 cells; 24 h,12.0%
same,G0/G1,1A9 cells; 48 h,28.6%
same,G2/M,1A9 cells; 48 h,17.2%
same,S,1A9 cells; 48 h,10.6%
same,Sub-G1,1A9 cells; 48 h,38.0%
same,G0/G1,1A9 cells; 72 h,16.7%
same,G2/M,1A9 cells; 72 h,9.0%
same,S,1A9 cells; 72 h,9.6%
same,Sub-G1,1A9 cells; 72 h,56.3%
same,G0/G1,1A9/PTX22 cells; 0 h,57.0%
same,G2/M,1A9/PTX22 cells; 0 h,20.4%
same,S,1A9/PTX22 cells; 0 h,8.8%
same,Sub-G1,1A9/PTX22 cells; 0 h,3.5%
same,G0/G1,1A9/PTX22 cells; 24 h,27.3%
same,G2/M,1A9/PTX22 cells; 24 h,31.4%
same,S,1A9/PTX22 cells; 24 h,4.7%
same,Sub-G1,1A9/PTX22 cells; 24 h,30.0%
same,G0/G1,1A9/PTX22 cells; 48 h,5.9%
same,G2/M,1A9/PTX22 cells; 48 h,44.3%
same,S,1A9/PTX22 cells; 48 h,3.4%
same,Sub-G1,1A9/PTX22 cells; 48 h,44.6%
same,G0/G1,1A9/PTX22 cells; 72 h,14.1%
same,G2/M,1A9/PTX22 cells; 72 h,13.7%
same,S,1A9/PTX22 cells; 72 h,5.7%
same,Sub-G1,1A9/PTX22 cells; 72 h,59.0%
